This note sets out measurements from ChEMBL document CHEMBL1138996, “Biological evaluation of isothiazoloquinolones containing aromatic heterocycles at the 7-position: In vitro activity of a series of potent antibacterial agents that are effective against methicillin-resistant Staphylococcus aureus” (Bioorg Med Chem Lett, 2006).

One test concerns Escherichia coli. Put plainly: Antibacterial activity against Escherichia coli ATCC 25922. It counts as functional.
The subject of test [1] is Staphylococcus aureus. Put plainly: Antibacterial activity against Staphylococcus aureus ATCC 29213. It counts as functional.
The test system of test [2] is Staphylococcus aureus. Kind of test: Antibacterial activity against methicillin-resistant Staphylococcus aureus ATCC 700699. It counts as functional.
In test [3] the target is DNA topoisomerase 4 subunit A (Staphylococcus aureus, UniProt P0C1U9). Put plainly: Inhibitory activity against Staphylococcus aureus ATCC 29213 wild type Topo 4.
The subject of the next test is HEp-2. Put plainly: Cytotoxicity against Hep2 cell line. Type of test: functional. Particulars: Homo sapiens.
For the next test, the system named is Enterococcus faecium. Kind of test: Antibacterial activity against Enterococcus faecium ATCC 49032. It counts as functional.
Another test has as its system Enterococcus faecalis. Put plainly: Antibacterial activity against Enterococcus faecalis ATCC 29212. Type of test: functional.
The test system of a further test is Streptococcus pyogenes. Put plainly: Antibacterial activity against Streptococcus pyogenes ATCC 19615. Type of test: functional.
Another test deals with Streptococcus pneumoniae. Kind of test: Antibacterial activity against Streptococcus pneumoniae ATCC 49619. Type of test: functional.
A further test deals with Haemophilus influenzae. Put plainly: Antibacterial activity against Haemophilus influenzae type b ACH-0056. Type of test: functional.
The test system of a further test is Moraxella catarrhalis. Put plainly: Antibacterial activity against Moraxella catarrhalis ATCC 8176. It counts as functional.
Test [4] has as its system Stenotrophomonas maltophilia. Kind of test: Antibacterial activity against Stenotrophomonas maltophilia ATCC 13637. It counts as functional.
For a further test, the system named is Salmonella typhimurium. Kind of test: Antibacterial activity against Salmonella Typhimurium ATCC 14028. It counts as functional, Salmonella enterica subsp. enterica serovar Typhimurium. Particulars: Salmonella enterica.
The test system of another test is Klebsiella pneumoniae. Kind of test: Antibacterial activity against Klebsiella pneumoniae ATCC 13883. Type of test: functional.

Each structure is given as a SMILES string. Converted amounts (≈) assume the structure as drawn. Some results are limits rather than exact numbers.

DNA topoisomerase 4 subunit A, sequence (P0C1U9 whole entry): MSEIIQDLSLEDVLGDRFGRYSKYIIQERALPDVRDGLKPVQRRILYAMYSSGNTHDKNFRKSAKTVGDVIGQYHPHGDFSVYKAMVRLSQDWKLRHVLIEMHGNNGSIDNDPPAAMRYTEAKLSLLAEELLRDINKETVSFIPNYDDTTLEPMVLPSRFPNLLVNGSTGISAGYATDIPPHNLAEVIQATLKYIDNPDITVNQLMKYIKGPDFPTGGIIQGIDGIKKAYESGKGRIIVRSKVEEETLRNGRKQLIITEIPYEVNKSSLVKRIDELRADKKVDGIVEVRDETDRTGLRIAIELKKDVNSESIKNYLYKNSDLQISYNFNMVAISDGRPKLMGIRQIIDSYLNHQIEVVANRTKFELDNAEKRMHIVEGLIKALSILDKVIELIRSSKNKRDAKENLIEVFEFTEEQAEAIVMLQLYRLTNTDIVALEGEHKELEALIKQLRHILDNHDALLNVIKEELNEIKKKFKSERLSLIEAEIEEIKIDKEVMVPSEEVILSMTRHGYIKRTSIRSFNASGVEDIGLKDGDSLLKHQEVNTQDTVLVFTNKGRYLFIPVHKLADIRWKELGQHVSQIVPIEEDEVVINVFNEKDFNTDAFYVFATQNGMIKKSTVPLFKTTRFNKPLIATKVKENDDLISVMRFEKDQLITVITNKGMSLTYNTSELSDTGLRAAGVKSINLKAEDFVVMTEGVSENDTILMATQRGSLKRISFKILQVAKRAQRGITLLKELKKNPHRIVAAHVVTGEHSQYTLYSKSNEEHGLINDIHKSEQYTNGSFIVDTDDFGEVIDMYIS

`COc1ccc(-c2cc3c(cc2F)c(=O)c2c(=O)[nH]sc2n3C2CC2)c(OC)n1`: the MIC against Escherichia coli was 2 µg/mL (≈ 4.84 µM); in the test on Staphylococcus aureus [1], 0.046 µg/mL (≈ 0.111 µM); against Staphylococcus aureus [2], 8 µg/mL (≈ 19.4 µM). In addition, the IC50 in test [3] turned out to be 16 µM. The molecule also displayed a CC50 with HEp-2 of 98 µM.
Consider `Cc1ccc(-c2cc3c(cc2F)c(=O)c2c(=O)[nH]sc2n3C2CC2)c(C)n1`, for which the MIC in the test with Escherichia coli was 0.5 µg/mL (≈ 1.31 µM); against Staphylococcus aureus [1] it was 0.13 µg/mL (≈ 0.341 µM); against Staphylococcus aureus [2] it was > 64 µg/mL. In [3], this molecule came in with an IC50 of 8 µM. Besides, the CC50 with HEp-2 is > 100 µM.
As for `COc1cncc(-c2cc3c(cc2F)c(=O)c2c(=O)[nH]sc2n3C2CC2)c1`, the results for the MIC against Escherichia coli, against Staphylococcus aureus [1] and with Staphylococcus aureus [2] were 0.061 µg/mL (≈ 0.159 µM), 0.03 µg/mL (≈ 0.0782 µM) and 4 µg/mL (≈ 10.4 µM), respectively. Further, the IC50 in test [3] came to 21 µM. For the same molecule, in the test on HEp-2, the CC50 is 34 µM.
In the same order, the values of `Cc1ccc(-c2cc3c(cc2F)c(=O)c2c(=O)[nH]sc2n3C2CC2)nc1` are 0.12 µg/mL (≈ 0.327 µM), 0.044 µg/mL (≈ 0.12 µM), 32 µg/mL (≈ 87.1 µM), 14 µM and 51 µM.
For `O=c1[nH]sc2c1c(=O)c1cc(F)c(-c3ccnc(F)c3)cc1n2C1CC1` the same measures were 0.059 µg/mL (≈ 0.159 µM), 0.0074 µg/mL (≈ 0.0199 µM), 1 µg/mL (≈ 2.69 µM), 19 µM and > 100 µM.
In the same order, the values of `O=c1[nH]sc2c1c(=O)c1cc(F)c(-c3ccc4[nH]ccc4c3)cc1n2C1CC1` are 0.059 µg/mL (≈ 0.151 µM), 0.004 µg/mL (≈ 0.0102 µM), 2 µg/mL (≈ 5.11 µM), > 40 µM and > 82 µM.
On to `Cc1ncccc1-c1cc2c(cc1F)c(=O)c1c(=O)[nH]sc1n2C1CC1`, for which the MIC in the test with Escherichia coli is 0.51 µg/mL (≈ 1.39 µM); in the test with Staphylococcus aureus [1], 0.13 µg/mL (≈ 0.354 µM); against Staphylococcus aureus [2], 1 µg/mL (≈ 2.72 µM). For the same molecule, the IC50 in test [3] was 3.5 µM. In addition, in the test on HEp-2, the CC50 worked out at 12 µM.
For the molecule `O=c1[nH]sc2c1c(=O)c1cc(F)c(-c3cncc4ccccc34)cc1n2C1CC1`, the results for the MIC with Escherichia coli, with Staphylococcus aureus [1] and in the test on Staphylococcus aureus [2] were 0.48 µg/mL (≈ 1.19 µM), 0.028 µg/mL (≈ 0.0694 µM) and 8 µg/mL (≈ 19.8 µM), respectively. For the same molecule, the IC50 in test [3] was > 38 µM. Besides, in the test with HEp-2, the CC50 was 51 µM.
Regarding `O=c1[nH]sc2c1c(=O)c1cc(F)c(-c3cccnc3)cc1n2C1CC1`, the MIC against Escherichia coli is 0.0035 µg/mL (≈ 0.0099 µM); against Staphylococcus aureus [1], 0.0071 µg/mL (≈ 0.0201 µM); with Staphylococcus aureus [2], 2 µg/mL (≈ 5.66 µM). The molecule also displayed an IC50 in test [3] of 0.5 µM. Moreover, the CC50 in the test with HEp-2 was > 100 µM.
`Cc1ccc(-c2cc3c(cc2F)c(=O)c2c(=O)[nH]sc2n3C2CC2)cn1`: the results for the MIC in the test with Escherichia coli, in the test with Staphylococcus aureus [1] and against Staphylococcus aureus [2] were 0.037 µg/mL (≈ 0.101 µM), 0.0037 µg/mL (≈ 0.0101 µM) and 1 µg/mL (≈ 2.72 µM), respectively. Moreover, the IC50 in test [3] came to 8.5 µM. The CC50 with HEp-2 came out at 31 µM.
With `O=c1[nH]sc2c1c(=O)c1cc(F)c(-c3cc4ccccc4[nH]3)cc1n2C1CC1`, the values for the MIC against Escherichia coli, against Staphylococcus aureus [1] and with Staphylococcus aureus [2] were 1 µg/mL (≈ 2.55 µM), 0.06 µg/mL (≈ 0.153 µM) and 4 µg/mL (≈ 10.2 µM), respectively. The molecule further returned an IC50 in test [3] of 3.3 µM. Further, the CC50 in the test with HEp-2 turned out to be 9 µM.
For `O=c1[nH]sc2c1c(=O)c1cc(F)c(-c3cncnc3)cc1n2C1CC1` the same measures were 0.12 µg/mL (≈ 0.339 µM), 0.025 µg/mL (≈ 0.0705 µM), 8 µg/mL (≈ 22.6 µM), 3.3 µM and 18 µM.
In the same order, the values of `Cc1ccnc(-c2cc3c(cc2F)c(=O)c2c(=O)[nH]sc2n3C2CC2)c1` are 0.25 µg/mL (≈ 0.68 µM), 0.06 µg/mL (≈ 0.163 µM), 32 µg/mL (≈ 87.1 µM), 16 µM and > 100 µM.
As for `COc1ccc(-c2cc3c(cc2F)c(=O)c2c(=O)[nH]sc2n3C2CC2)cn1`, the MIC in the test with Escherichia coli amounted to 0.015 µg/mL (≈ 0.0391 µM); against Staphylococcus aureus [1], 0.023 µg/mL (≈ 0.06 µM); against Staphylococcus aureus [2] it was 16 µg/mL (≈ 41.7 µM). This molecule also yielded an IC50 in test [3] of 26 µM. Besides, the CC50 with HEp-2 was > 100 µM.
As for `O=C(O)c1cn(C2CC2)c2cc(N3CCNCC3)c(F)cc2c1=O` [CIPROFLOXACIN], the MIC amounted to 0.22 µg/mL (≈ 0.664 µM) with Staphylococcus aureus [1]; 32 µg/mL (≈ 96.6 µM) in the test with Staphylococcus aureus [2]; 2 µg/mL (≈ 6.04 µM) in the test with Enterococcus faecium; 0.56 µg/mL (≈ 1.69 µM) with Enterococcus faecalis; 0.28 µg/mL (≈ 0.845 µM) against Streptococcus pyogenes; 0.56 µg/mL (≈ 1.69 µM) with Streptococcus pneumoniae. The MIC in the test on Haemophilus influenzae was determined as 0.018 µg/mL (≈ 0.0543 µM); with Moraxella catarrhalis, 0.033 µg/mL (≈ 0.0996 µM); in [4] it was 0.28 µg/mL (≈ 0.845 µM); against Salmonella typhimurium, 0.018 µg/mL (≈ 0.0543 µM); against Klebsiella pneumoniae, 0.033 µg/mL (≈ 0.0996 µM). The CC50 in the test with HEp-2 is > 100 µM.
As for `O=c1[nH]sc2c1c(=O)c1cc(F)c(-c3ccc4cnccc4c3)cc1n2C1CC1`, the MIC in the test on Escherichia coli amounted to 0.13 µg/mL (≈ 0.322 µM); in the test on Staphylococcus aureus [1], 0.002 µg/mL (≈ 0.00496 µM); against Staphylococcus aureus [2], 0.5 µg/mL (≈ 1.24 µM). This molecule had an IC50 in test [3] of 3.6 µM. Besides, in the test with HEp-2, the CC50 came to 22 µM.
For `O=c1[nH]sc2c1c(=O)c1cc(F)c(-c3ccc4cncnc4c3)cc1n2C1CC1` the same measures were 4 µg/mL (≈ 9.89 µM), 0.06 µg/mL (≈ 0.148 µM), > 64 µg/mL, 29 µM and > 100 µM.

In general, IC50 refers to the midpoint of a concentration-inhibition curve. The low end stands for greater potency in that assay, the high end for weaker potency in that assay. What is called CC50 is the concentration at which the toxic effect on the cells reaches its halfway point. Higher therefore signals better tolerance by the cells.
